Data from article PMC12519464, “Dual-Site Inhibition of SARS-CoV‑2 RNA-Dependent RNA Polymerase by Small Molecules Able to Block Viral Replication Identified through a Computer-Aided Drug Discovery Approach” (ACS Infectious Diseases, 2025).

biological target: SARS-CoV-2 nsp12/7/8 (RTC) complex (Severe acute respiratory syndrome coronavirus 2, UniProt P0DTD1); experiment: biochemical; assay type: biochemical; conditions: not given

Row | SMILES | IC50
1 | CC(C)C1=CC(=O)[C@](C)([C@H]2[C@H](O)C[C@@]3(C)[C@@H]4CC=C5[C@@H](CC[C@@H](O[C@@H]6OC[C@@H](O)[C@H](O)[C@H]6O[C@@H]6O[C@@H](C)[C@H](O)[C@@H](O)[C@H]6O)C5(C)C)[C@]4(C)C(=O)C[C@]23C)O1 (racemic) [Picfeltarracemin Ia] | > 100 µM
2 | C[C@H]1[C@H](C)CC[C@]2(C(=O)O)CC[C@]3(C)C(=CC[C@@H]4[C@@]5(C)C[C@@H](O)[C@H](O)[C@@](C)(CO)[C@@H]5CC[C@]43C)[C@H]12 [Asiatic Acid] | > 100 µM
3 | C[C@H]1[C@H](C)CC[C@]2(C)CC[C@]3(C)C(=CC[C@@H]4[C@@]5(C)CC[C@@H](O)[C@](C)(C(=O)O)[C@@H]5CC[C@]43C)[C@H]12 [Beta-Boswellic acid] | 21.1 ± 4.45 µM
4 | C=C(C)[C@@H]1CC[C@]2(C=O)CC[C@]3(C)[C@H](CC[C@@H]4[C@@]5(C)CC[C@H](O)C(C)(C)[C@@H]5CC[C@]43C)[C@@H]12 [Betulinaldehyde] | > 100 µM
5 | CC1(C)[C@@H](OC(=O)CCC(=O)O)CC[C@]2(C)[C@H]3C(=O)C=C4[C@@H]5C[C@@](C)(C(=O)O)CC[C@]5(C)CC[C@@]4(C)[C@]3(C)CC[C@@H]12 [Carbenoxolone, reference compound] | 55.8 ± 8.66 µM
6 | C[C@H]1[C@H](C)CC[C@]2(C(=O)O)CC[C@]3(C)C(=CC[C@@H]4[C@@]5(C)C[C@@H](O)[C@H](O)C(C)(C)[C@@H]5CC[C@]43C)[C@H]12 [Corosolic acid, reference compound] | > 100 µM
7 | CC(C)(O)/C=C/C(=O)[C@](C)(O)[C@H]1[C@H](O)C[C@@]2(C)[C@@H]3CC=C4[C@@H](C[C@H](O)C(=O)C4(C)C)[C@]3(C)C(=O)C[C@]12C [Cucurbitacin D] | > 100 µM

same assay, conditions: primer-extension PAGE assay, 150 nM RTC, 5% DMSO, 30 min preincubation at 37 °C; mean and SD of at least 3 independent experiments

Row | SMILES | IC50
8 | CC(C)CC(=O)Nc1cncc(-c2ccc3[nH]nc(-c4nc5c(-c6cccc(F)c6)cncc5[nH]4)c3c2)c1 [Adavivint, reference compound] | > 100 µM
9 | O=C(Nc1nc(-c2cc(Cl)cs2)c(N2CCN(C3CCCCC3)CC2)s1)c1cnc(N2CCC(C(=O)O)CC2)c(Cl)c1 [Avatrombopag, reference compound] | 27.2 ± 7.35 µM
10 | Cc1c(-c2c(F)cc(C(N)=O)c3[nH]c4c(c23)CC[C@H](C(C)(C)O)C4)cccc1-n1c(=O)c2cccc(F)c2n(C)c1=O [BMS-986142, reference compound] | 22.8 ± 3.63 µM
11 | Nc1nc(Nc2ccc3c(c2)CC[C@@H](N2CCCC2)CC3)nn1-c1cc2c(nn1)-c1ccccc1CCC2 [Bemcentinib, reference compound] | 18.5 ± 3.41 µM

same assay, conditions: read-out: IC50: compound concentration required to inhibit by 50% the SARS-CoV-2 RTC enzymatic activity

Row | SMILES | IC50
12 | O=C(COc1ccc2c(-c3ccccc3)cc(=O)oc2c1)Nc1ccc(OCc2ccccc2)cc1 [2-(2-oxo-4-phenylchromen-7-yl)oxy-N-(4-phenylmethoxyphenyl)acetamide] | 80.5 ± 6.24 µM
13 | CC1(C)[C@H](OC(=O)c2ccccc2)CC[C@]2(C)C3=C([C@@H](O)C[C@@H]12)[C@@]1(C)CC[C@@]2(C)CC[C@@](C)(COC(=O)c4ccccc4)C[C@H]2[C@]1(C)CC3 [3,29-Dibenzoyl Rarounitriol] | > 100 µM
14 | CC(C)=CCCC(C(=O)O)C1CCC2(C)C3=C(CCC12C)C1(C)CCC(=O)C(C)(C)C1CC3 (centres unmarked) [3-Dehydrotrametenolic acid] | > 100 µM
15 | C[C@H]1[C@H](C)CC[C@]2(C(=O)O)CC[C@]3(C)C(=CC[C@@H]4[C@@]5(C)CC[C@H](O)C(C)(C)[C@@H]5CC[C@]43C)[C@H]12 [3-Epiursolic Acid] | 11.6 ± 3.97 µM
16 | COc1ccc2cc(-c3cc(-c4cc(Cl)cc(Cl)c4)nn3[C@@H](C)c3ccc(C(=O)NCCC(=O)O)cc3)ccc2c1 [3-[[4-[(1S)-1-[3-(3,5-dichlorophenyl)-5-(6-methoxynaphthalen-2-yl)pyrazol-1-yl]ethyl]benzoyl]amino]propanoic acid, reference compound] | 11.8 ± 6.43 µM
17 | O=C(Nc1cccc(C(=O)O)c1)/C(=C\c1ccccc1)NC(=O)c1ccc(NC(=O)c2ccccc2)cc1 [3-[[(E)-2-[(4-benzamidobenzoyl)amino]-3-phenylprop-2-enoyl]amino]benzoic acid] | 85.7 ± 0.62 µM
18 | Cc1cc2c(C(C)C)c(O)c(O)c(C=NCc3ccncc3)c2c(O)c1-c1c(C)cc2c(C(C)C)c(O)c(O)c(C=NCc3ccncc3)c2c1O [3-methyl-5-propan-2-yl-8-(pyridin-4-ylmethyliminomethyl)-2-[1,6,7-trihydroxy-3-methyl-5-propan-2-yl-8-(pyridin-4-ylmethyliminomethyl)naphthalen-2-yl]naphthalene-1,6,7-triol] | 16.1 ± 0.32 µM
19 | Cc1ccccc1N=Cc1c(O)c(O)c(C(C)C)c2cc(C)c(-c3c(C)cc4c(C(C)C)c(O)c(O)c(C=Nc5ccccc5C)c4c3O)c(O)c12 [3-methyl-8-[(2-methylphenyl)iminomethyl]-5-propan-2-yl-2-[1,6,7-trihydroxy-3-methyl-8-[(2-methylphenyl)iminomethyl]-5-propan-2-ylnaphthalen-2-yl]naphthalene-1,6,7-triol] | 28.4 ± 7.42 µM
20 | O=C(CCn1c2c(c3ccccc31)CCn1c-2nc2ccccc2c1=O)N1CCN(C2=Nc3ccccc3Oc3ccccc32)CC1 [13-{3-[4-(dibenzo[b,f][1,4]oxazepin-11-yl)piperazin-1-yl]-3-oxopropyl}-8,13-dihydroindolo[2',3':3,4]pyrido[2,1-b]quinazolin-5(7H)-one] | > 100 µM
21 | CC(C)=CCC[C@@](C)(O)[C@H]1CC[C@]2(C)[C@@H]1[C@H](O)C[C@@H]1[C@@]3(C)CC[C@H](O[C@@H]4O[C@H](CO)[C@@H](O)[C@H](O)[C@H]4O)C(C)(C)[C@@H]3CC[C@]12C [20(R)-Ginsenoside Rh2] | > 100 µM
22 | CC(C)(O)CC[C@H]1OC(C)(C)O[C@]1(C)[C@H]1CC[C@@]2(O)C3=CC(=O)[C@@H]4C[C@@H](O)[C@@H](O)C[C@]4(C)[C@H]3CC[C@]12C [20-Hydroxyecdysone 20,22-acetonide] | > 100 µM
23 | C=CCOc1cccc(C(=O)[C@@H]2[C@@H]3CCCN3[C@]3(C(=O)Nc4c(C)cc(C)cc43)[C@@]23C(=O)Nc2ccccc23)c1 [(1'S,3R,3'S,7a'S)-5'',7''-dimethyl-1'-{[3-(prop-2-en-1-yloxy)phenyl]carbonyl}-5',6',7',7a'-tetrahydro-1'H-dispiro[indole-3,2'-pyrrolizine-3',3''-indole]-2,2''(1H,1''H)-dione] | > 100 µM
24 | C/C(Nc1ccc(Oc2ccc(N/C(C)=C3\C(=O)C[C@@H]4[C@H]3C4(C)C)cc2)cc1)=C1/C(=O)C[C@@H]2[C@H]1C2(C)C [(1S,2Z,5R)-2-[1-[4-[4-[[(1Z)-1-[(1S,5R)-6,6-dimethyl-3-oxo-2-bicyclo[3.1.0]hexanylidene]ethyl]amino]phenoxy]anilino]ethylidene]-6,6-dimethylbicyclo[3.1.0]hexan-3-one] | > 100 µM
25 | Cc1oc2c(C)c3oc(=O)c(CC(=O)N4C[C@H]5C[C@@H](C4)c4cccc(=O)n4C5)c(C)c3cc2c1-c1ccccc1 [(1S,9R)-11-[2-(2,5,9-trimethyl-7-oxo-3-phenylfuro[3,2-g]chromen-6-yl)acetyl]-7,11-diazatricyclo[7.3.1.02,7]trideca-2,4-dien-6-one] | 28.3 ± 6.24 µM
26 | CC(C)[C@@H](NC(=O)C1(c2ccccc2)CCN(C(=O)OC(C)(C)C)CC1)C(=O)N[C@@H](C(=O)O)c1ccccc1 [(2R)-[(N-{[1-(tert-butoxycarbonyl)-4-phenylpiperidin-4-yl]carbonyl}-D-valyl)amino](phenyl)ethanoic acid] | > 100 µM
27 | C[C@@H]1CC[C@@]2(OC1)O[C@H]1C[C@H]3[C@@H]4CC=C5C[C@@H](O[C@@H]6O[C@H](CO)[C@@H](O)[C@H](O)[C@H]6O[C@@H]6O[C@@H](C)[C@H](O)[C@@H](O)[C@H]6O)CC[C@]5(C)[C@H]4CC[C@]3(C)[C@@]1(O)[C@@H]2C [(2S,3R,4R,5R,6S)-2-[(2R,3R,4S,5S,6R)-4,5-dihydroxy-6-(hydroxymethyl)-2-[(1R,2S,4S,5'R,6R,7S,8S,9S,12S,13R,16S)-8-hydroxy-5',7,9,13-tetramethylspiro[5-oxapentacyclo[10.8.0.02,9.04,8.013,18]icos-18-ene-6,2'-oxane]-16-yl]oxyoxan-3-yl]oxy-6-methyloxane-3,4,5-triol] | > 100 µM
28 | CO[C@H]1/C=C/O[C@@]2(C)Oc3c(C)c(O)c4c(c3C2=O)C(=O)C(N2CCCC2)=C(NC(=O)/C(C)=C\C=C\[C@H](C)[C@H](O)[C@@H](C)[C@H](O)[C@H](C)[C@H](O)[C@@H]1C)C4=O [(7S,9E,11S,12S,13S,14S,15S,16R,17S,18S,19E,21Z)-2,13,15,17-tetrahydroxy-11-methoxy-3,7,12,14,16,18,22-heptamethyl-26-pyrrolidin-1-yl-8,30-dioxa-24-azatetracyclo[23.3.1.14,7.05,28]triaconta-1(28),2,4,9,19,21,25-heptaene-6,23,27,29-tetrone] | 46.1 ± 15.6 µM
29 | CC(C)=CCC[C@@](C)(O)[C@H]1CC[C@]2(C)[C@@H]1[C@H](O)C[C@@H]1[C@@]3(C)CC[C@H](O)C(C)(C)[C@@H]3[C@@H](O[C@@H]3O[C@H](CO)[C@@H](O)[C@H](O)[C@H]3O)C[C@]12C [(20R)-Ginsenoside Rh1] | > 100 µM
30 | CC(C)=CCC[C@@](C)(O)[C@H]1CC[C@]2(C)[C@@H]1[C@H](O)C[C@@H]1[C@@]3(C)CC[C@H](O)C(C)(C)[C@@H]3CC[C@]12C [(20R)-Protopanaxadiol] | > 100 µM
31 | CC(C)=CCC[C@](C)(O)[C@H]1CC[C@]2(C)[C@@H]1[C@H](O)C[C@@H]1[C@@]3(C)CC[C@H](O)C(C)(C)[C@@H]3CC[C@]12C [(20S)-Protopanaxadiol] | > 100 µM
32 | CC(=O)O[C@@H](C[C@@H](C)C1=C2C[C@H](O)[C@H]3[C@@]4(C)CCC(=O)C(C)(C)[C@@H]4CC[C@]3(C)[C@@]2(C)CC1=O)[C@H]1OC1(C)C [Alisol C monoacetate] | > 100 µM
33 | CC1(C)CC[C@]2(C)CC[C@]3(C)C(=CC[C@@H]4[C@@]5(C)CC[C@@H](O)[C@](C)(C(=O)O)[C@@H]5CC[C@]43C)[C@@H]2C1 [Alpha-Boswellic acid] | 93.5 ± 9.14 µM
34 | CC[C@H](/C=C/[C@@H](C)[C@H]1CC[C@H]2C3=CC[C@H]4C[C@@H](O[C@@H]5O[C@H](CO)[C@@H](O)[C@H](O)[C@H]5O)CC[C@]4(C)[C@H]3CC[C@]12C)C(C)C [Alpha-Spinasterol glucoside] | > 100 µM
35 | Cc1ccc(NC(=O)[C@H]2CCCN(C(=O)c3c(C)cccc3F)[C@H]2c2ccc(NC3CCCC3)cc2)cc1C(F)(F)F [Avacopan, reference compound] | > 100 µM
